{
  "source": "patent US12167995B2",
  "about": "“[((1R,2S,5R)-2-isopropyl-5-methyl-cyclohexanecarbonyl)-amino]-acetic acid isopropyl ester for treatment of chronic cough” (AXALBION SA, priority 2019, dated 2024)",
  "key": {"[1]": {"target": "T1, human TRPM8 (Homo sapiens, UniProt Q7Z2W7)", "T1 construct": "host or cells: CHO cells", "T1 sequence (Q7Z2W7 whole entry)": "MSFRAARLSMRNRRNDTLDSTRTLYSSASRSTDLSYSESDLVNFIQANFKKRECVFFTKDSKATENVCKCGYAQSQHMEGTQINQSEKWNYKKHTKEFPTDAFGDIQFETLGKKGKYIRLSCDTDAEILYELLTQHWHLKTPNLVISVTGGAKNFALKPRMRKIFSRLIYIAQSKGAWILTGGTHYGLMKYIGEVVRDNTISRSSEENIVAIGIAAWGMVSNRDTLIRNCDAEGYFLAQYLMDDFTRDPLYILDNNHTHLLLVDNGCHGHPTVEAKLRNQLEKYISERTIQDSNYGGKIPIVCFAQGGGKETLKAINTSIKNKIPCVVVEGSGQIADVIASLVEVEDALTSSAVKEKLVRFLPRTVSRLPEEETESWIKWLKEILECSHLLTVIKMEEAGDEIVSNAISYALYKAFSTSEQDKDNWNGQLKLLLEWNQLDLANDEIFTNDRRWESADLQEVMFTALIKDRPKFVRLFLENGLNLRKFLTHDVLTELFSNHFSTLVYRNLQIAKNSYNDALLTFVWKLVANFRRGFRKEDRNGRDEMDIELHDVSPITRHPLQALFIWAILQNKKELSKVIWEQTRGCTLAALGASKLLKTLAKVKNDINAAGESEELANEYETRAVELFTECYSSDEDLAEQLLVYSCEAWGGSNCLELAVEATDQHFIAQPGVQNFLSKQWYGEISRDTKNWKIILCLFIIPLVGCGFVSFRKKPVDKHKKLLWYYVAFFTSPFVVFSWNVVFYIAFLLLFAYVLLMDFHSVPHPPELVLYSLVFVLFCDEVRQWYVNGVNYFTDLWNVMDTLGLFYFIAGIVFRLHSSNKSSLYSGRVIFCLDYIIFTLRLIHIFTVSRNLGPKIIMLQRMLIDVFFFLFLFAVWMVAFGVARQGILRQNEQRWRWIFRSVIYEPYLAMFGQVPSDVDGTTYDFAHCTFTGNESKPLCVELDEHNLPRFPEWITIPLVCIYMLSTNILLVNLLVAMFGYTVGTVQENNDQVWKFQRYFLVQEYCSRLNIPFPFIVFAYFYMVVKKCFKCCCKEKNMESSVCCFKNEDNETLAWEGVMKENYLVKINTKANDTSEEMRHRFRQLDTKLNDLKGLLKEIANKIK", "experiment": "FLIPR calcium assay on cloned human TRPM8 channels expressed in CHO cells", "assay_type": "cell-based", "experimental": "AX-8 potency was assessed using Fluorescence Imaging Plate Reader (FLIPR®) assays (study performed by ChanTest/Charles River). The in vitro effects were evaluated on cloned human TRPM8 channels expressed in CHO cells using a Fluo-8 calcium kit and a Fluorescence Imaging Plate Reader ([…]™) instrument. Changes is fluorescence intensity, reflecting the calcium flux through hTRPM8, were measured and the area under the signals (area under the curve, AUC) calculated and expressed in relative light units. Changes induced by the vehicle (HEPES-buffered physiological saline solution, HB-PS) were subtracted."}, "[2]": {"target": "T2, hTRPA1 (Homo sapiens, UniProt O75762)", "T2 construct": "expressed in transfected cells; host or cells: CHO", "T2 sequence (O75762 whole entry)": "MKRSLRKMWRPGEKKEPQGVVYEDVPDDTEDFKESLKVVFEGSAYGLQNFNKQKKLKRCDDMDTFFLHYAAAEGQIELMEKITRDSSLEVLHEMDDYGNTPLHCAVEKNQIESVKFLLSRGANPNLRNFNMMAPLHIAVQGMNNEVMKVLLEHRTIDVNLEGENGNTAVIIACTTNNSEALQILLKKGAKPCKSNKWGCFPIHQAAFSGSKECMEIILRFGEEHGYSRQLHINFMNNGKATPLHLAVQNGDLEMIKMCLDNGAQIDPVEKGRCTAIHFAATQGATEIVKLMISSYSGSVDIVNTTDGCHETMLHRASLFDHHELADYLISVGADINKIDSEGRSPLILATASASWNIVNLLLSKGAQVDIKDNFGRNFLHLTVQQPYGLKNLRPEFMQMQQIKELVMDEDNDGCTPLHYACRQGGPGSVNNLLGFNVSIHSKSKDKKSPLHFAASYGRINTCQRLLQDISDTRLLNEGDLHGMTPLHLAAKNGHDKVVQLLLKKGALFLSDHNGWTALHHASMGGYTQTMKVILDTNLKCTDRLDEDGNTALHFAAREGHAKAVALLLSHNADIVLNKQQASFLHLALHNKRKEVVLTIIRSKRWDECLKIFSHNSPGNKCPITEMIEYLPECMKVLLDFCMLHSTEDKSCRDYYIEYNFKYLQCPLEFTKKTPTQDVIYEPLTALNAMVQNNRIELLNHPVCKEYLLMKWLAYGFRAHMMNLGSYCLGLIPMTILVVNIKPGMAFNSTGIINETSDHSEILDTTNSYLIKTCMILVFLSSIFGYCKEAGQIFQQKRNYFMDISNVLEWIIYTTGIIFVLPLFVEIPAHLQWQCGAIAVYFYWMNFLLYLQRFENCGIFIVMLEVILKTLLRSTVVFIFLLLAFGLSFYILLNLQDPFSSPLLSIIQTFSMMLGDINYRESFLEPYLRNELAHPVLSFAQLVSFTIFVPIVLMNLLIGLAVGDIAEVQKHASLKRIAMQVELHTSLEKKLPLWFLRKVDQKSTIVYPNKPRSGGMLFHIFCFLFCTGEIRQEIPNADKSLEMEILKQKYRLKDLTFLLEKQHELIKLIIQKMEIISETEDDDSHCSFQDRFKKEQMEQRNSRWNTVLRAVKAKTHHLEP", "experiment": "FLIPR calcium assay, selectivity against hTRPA1 (expressed in CHO)", "assay_type": "cell-based", "experimental": "(§1) Similarly, selectivity against hTRPA1 (expressed in CHO) and hTRPV1 (expressed in HEK-293) was assessed using FLIPR® calcium assay (at 100 μM, i.e., 10-fold more than the concentration for maximal response; see FIG. 12). […] For the agonist effect assessment, the effect of AX-8 was evaluated in the absence of the positive control agonist. The maximal signal elicited in the presence of the respective agonist (300 μM mustard oil for TRPA1; 3 μM capsaicin for TRPV1) was set to 100% activation and the signal in the presence of the vehicle control (HB-PS) was set to 0% activation. For the antagonist effect assessment, the channels were activated with the respective positive control agonist (100 μM mustard oil for TRPA1; 0.1 μM capsaicin for TRPV1). The effects of AX-8 to inhibit the signal was examined after agonist stimulation and compared to the respective positive control antagonist (3 μM ruthenium red). For each channel, the signal elicited in the presence of the respective positive control agonist was set to 100 (0% inhibition) and the signal in the presence of the respective positive control antagonist was set to 0 (100% inhibition)."}, "[3]": {"target": "T3, hTRPV1 (Homo sapiens, UniProt Q8NER1)", "T3 construct": "expressed in transfected cells; host or cells: HEK-293", "T3 sequence (Q8NER1 whole entry)": "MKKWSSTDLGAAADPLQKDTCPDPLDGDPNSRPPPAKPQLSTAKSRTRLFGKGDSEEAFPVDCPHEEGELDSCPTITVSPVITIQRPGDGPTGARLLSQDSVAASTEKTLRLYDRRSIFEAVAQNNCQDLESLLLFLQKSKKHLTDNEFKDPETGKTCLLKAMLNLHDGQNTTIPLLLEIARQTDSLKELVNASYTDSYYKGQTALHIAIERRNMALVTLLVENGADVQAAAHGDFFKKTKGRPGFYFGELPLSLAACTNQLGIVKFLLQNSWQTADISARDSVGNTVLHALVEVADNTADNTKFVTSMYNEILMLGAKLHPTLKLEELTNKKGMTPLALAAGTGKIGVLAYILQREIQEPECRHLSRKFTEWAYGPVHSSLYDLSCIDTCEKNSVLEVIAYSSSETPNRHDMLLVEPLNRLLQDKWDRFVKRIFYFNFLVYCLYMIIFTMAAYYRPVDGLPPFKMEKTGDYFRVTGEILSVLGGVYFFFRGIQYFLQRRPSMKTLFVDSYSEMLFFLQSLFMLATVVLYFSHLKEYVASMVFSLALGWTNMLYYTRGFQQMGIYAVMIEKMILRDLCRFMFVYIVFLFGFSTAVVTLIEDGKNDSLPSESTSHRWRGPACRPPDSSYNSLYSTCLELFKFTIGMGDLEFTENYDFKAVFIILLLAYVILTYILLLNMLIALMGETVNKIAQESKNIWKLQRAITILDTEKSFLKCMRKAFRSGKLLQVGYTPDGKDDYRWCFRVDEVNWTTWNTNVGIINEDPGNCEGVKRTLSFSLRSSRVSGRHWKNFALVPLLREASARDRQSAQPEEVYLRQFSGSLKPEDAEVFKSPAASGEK", "experiment": "FLIPR calcium assay, selectivity against hTRPV1 (expressed in HEK-293)", "assay_type": "cell-based", "experimental": "as §1"}, "[4]": {"test_system": "refractory chronic cough (RCC)", "experiment": "Clinical Trial 2: cough severity and associated sensations, 100 mm VAS", "assay_type": "in vivo, human", "experimental": "Cough Severity was scored on a 100 mm Visual Analog Scale (VAS) at the specified time points. The patient was asked to indicate their assessment by marking (e.g., with a pen) a position along a 100 mm line between two extremes, e.g., “no cough” and “worst cough”. Urge-to-cough was scored on a 100 mm VAS at the specified time points. Throat irritation was scored on a 100 mm VAS at the specified time points. Throat cooling was scored on a 100 mm VAS at the specified time points. At least 24 hours after the Baseline Visit cough monitor has been attached on Day 0, and preferably before 10 am, the following activities were performed by clinic staff (not specified by the order below): • Remove the Baseline Visit cough monitor. • Update medical history. • Record all concomitant medication use. • Inclusion/exclusion criteria review. • If all inclusion and exclusion criteria were met, enroll patient into study. • Vital signs: before dose and 4 hours after dose. • 12-lead ECG (before dose). • Laboratory tests: • Urine drugs-of-abuse testing. • Pharmacokinetic (PK) sample taken. • Provide subject with VAS diary and instruct them to complete VAS assessments at +5 and +6 hours at home (see below). • Before dosing, attach and activate Treatment Visit cough monitor. • Administer the dose of the study drug (preferably before 10 am). • Cough severity VAS assessment: • Prior to dose: • −30 minutes. • After dose: • +1, +2, +3, +4, +5, +6 hours. • Urge-to-cough VAS assessment: • Prior to dose: • −30 minutes. • After dose: • +1, +2, +3, +4, +5, +6 hours. • Throat irritancy VAS assessment: • Prior to dose: • −30 minutes. • After dose: • +1, +2, +3, +4, +5, +6 hours. • Throat cooling VAS assessment: • Prior to dose: • −30 minutes. • After dose: • +1, +2, +3, +4, +5, +6 hours. • GRCS assessment at 4 hours after dose. • Schedule Follow-Up Visit. • Once the Investigator confirmed it was safe to do so, the subject could leave the unit after the assessments 4 hours after dose were complete. At least 24 hours after the Treatment Visit cough monitor has been attached (on Day 1), the following activities were performed by clinic staff (not specified by the order below): • Remove the Treatment Visit cough monitor. • Collect and review the VAS diary for completeness. • Overall impression of the treatment day (24 hours) with: • Cough severity VAS assessment. • Urge-to-cough VAS assessment. • Throat irritancy VAS assessment. • Throat cooling VAS assessment. • GRCS assessment. • Record all adverse events. • Record all concomitant medication use. • Schedule End of Study visit. End of Study Visit (Visit 5): The following procedures and evaluations were performed at the clinic between Day 7 and 14. At this visit, the following procedures and assessments were performed by clinic staff (not specified by the order below): • Cough severity VAS assessment. • Urge-to-cough VAS assessment. • Throat irritancy VAS assessment. • GRCS assessment. • Vital signs. • Weight. • Physical examination. • 12-lead ECG. • Laboratory tests: • Hematology. • Chemistry. • Urinalysis. • Urine pregnancy test for females of childbearing potential. • Record all adverse events. • Record all concomitant medication use."}},
  "note": "“Also recorded” adds a separate entry of the source.",
  "data": [
    {"molecule": "CC(C)OC(=O)CNC(=O)[C@@H]1C[C@H](C)CC[C@H]1C(C)C", "note": "[AX-8, [((1R,2S,5R)-2-isopropyl-5-methyl-cyclohexanecarbonyl)-amino]-acetic acid isopropyl ester]", "values": [
      {"measurement": "EC50", "setting": "[1]; calcium signal AUC, Fluo-8, n=8, read-out: half-maximal response concentration (EC50), activation of human TRPM8", "result": 390, "unit": "nM"},
      {"measurement": "potency as TRPM8 agonist relative to menthol", "setting": "[1]; ratio of EC50 values", "result": "~6", "unit": "times"},
      {"measurement": "antagonistic interaction with TRPA1", "setting": "[2]; at 100 μM, channel activated with 100 μM mustard oil, control antagonist 3 μM ruthenium red", "result": "no agonistic or antagonistic interactions"},
      {"measurement": "agonistic activity on hTRPA1", "setting": "[2]; concentrations ≤100 μM, % of mustard oil maximal response, n=4", "result": "no agonistic or antagonistic interactions; also recorded: no significant agonistic activity on hTRPA1"},
      {"measurement": "antagonistic interaction with TRPV1", "setting": "[3]; at 100 μM, channel activated with 0.1 μM capsaicin, control antagonist 3 μM ruthenium red", "result": "no agonistic or antagonistic interactions"},
      {"measurement": "agonistic activity on hTRPV1", "setting": "[3]; concentrations ≤100 μM, % of capsaicin maximal response, n=4", "result": "no agonistic or antagonistic interactions; also recorded: no agonistic activity on hTRPV1"},
      {"measurement": "Urge-to-Cough VAS, Median, Follow-Up (Visit 4)", "setting": "[4]; >24-hour period after treatment, n=11, Screening 51.5", "result": 46.0, "unit": "mm"},
      {"measurement": "Throat Irritation VAS, Median, Follow-Up (Visit 4)", "setting": "[4]; >24-hour period after treatment, n=11, Screening 55.0", "result": 9.0, "unit": "mm"},
      {"measurement": "Cough Severity VAS, Median, Follow-Up (Visit 4)", "setting": "[4]; >24-hour period after treatment, n=11, Screening 61.5", "result": 47.0, "unit": "mm"},
      {"measurement": "Cough Severity VAS, Median, End of Study (Visit 5)", "setting": "[4]; Day 7 to 14, n=11", "result": 64.0, "unit": "mm"},
      {"measurement": "Throat Irritation VAS, Median, End of Study (Visit 5)", "setting": "[4]; Day 7 to 14, n=11", "result": 47.0, "unit": "mm"},
      {"measurement": "Urge-to-Cough VAS, Median, End of Study (Visit 5)", "setting": "[4]; Day 7 to 14, n=11", "result": 57.0, "unit": "mm"},
      {"measurement": "time of apparent maximum improvement in urge-to-cough", "setting": "[4]; FIG. 8", "result": "about 3 hours"},
      {"measurement": "throat cooling VAS time course", "setting": "[4]; FIG. 10", "result": "increase only at 30 minutes"},
      {"measurement": "cough severity VAS time course", "setting": "[4]; hourly for 6 hours after treatment, FIG. 7", "result": "reduction from the first hour that persisted for the 6 hours of monitoring"},
      {"measurement": "urge-to-cough VAS time course", "setting": "[4]; hourly for 6 hours after treatment, FIG. 8", "result": "improvement from the first hour that persisted for the 6 hours of monitoring"},
      {"measurement": "throat irritation VAS time course", "setting": "[4]; hourly for 6 hours after treatment, FIG. 9, baseline lower on treatment day", "result": "improvement from the first hour that persisted for the 6 hours of monitoring"}
    ]}
  ]
}
